# Laboratory results from PubChem BioAssay AID1687.
# Target: pyruvate kinase (Geobacillus stearothermophilus)
# Test: modulators of bacterial pyruvate kinase activity – biochemical, Geobacillus stearothermophilus, confirmation (AID 1687)
# Details: purified enzyme, LDH-coupled NADH absorbance 340 nm
row,SMILES,AC50 [µM]
1,C=CCn1c2ccccc2n2cc(-c3ccc4c(c3)OCO4)nc12,10.5
2,CN(C)CCCN(C(=O)c1ccc(Cl)s1)c1nc2cc3c(cc2s1)OCO3,8.9
3,COc1cccc(CN2c3cccc4cccc(c34)S2(=O)=O)c1,5.5
4,O=C(CN1c2cccc3cccc(c23)S1(=O)=O)NCc1ccccc1OC(F)F,7.6

# Second part, the compound after the results:
row,AC50 [µM],SMILES
1,4.9,NNC(=O)c1ccc(CN2c3cccc4cccc(c34)S2(=O)=O)cc1
2,1,Cn1c2ccccc2n2cc(-c3ccc4c(c3)OCO4)nc12
3,1.7,CN(C)CCn1c2ccccc2n2cc(-c3ccc4c(c3)OCO4)nc12
4,2.2,CCN(CC)CCn1c2ccccc2n2cc(-c3ccc4c(c3)OCO4)nc12
5,2,CCn1c2ccccc2n2cc(-c3ccc4c(c3)OCO4)nc12
